Values of other authors, collected in patent US12564552B2, “Oral product with a basic amine and an ion pairing agent” (NICOVENTURES TRADING LIMITED, priority 2021, dated 2026).

Legend:
[1] = not given; remark: listed apart in the source
human buccal tissue = conditions: nicotine solution pH=6 vs pH 8.1, perfusion cell, Adrian et al.

CC(/C=C/C=C(C)/C=C/C(=O)O)=C\C=C\C=C(C)\C=C\C=C(C)\C=C\C(=O)O (stereo in doubt) [norbixin, (2E,4E,6E,8E,10E,12E,14E,16E,18E)-4,8,13,17-tetramethylicosa-2,4,6,8,10,12,14,16,18-nonaenedioic acid]
solubility in water: water-soluble

CN1CCCC1c1cccnc1 (stereo not shown) [nicotine]
log Ka1 (pyridine ring nitrogen) ([1]; pyridine ring nitrogen): 3.41 | log Ka2 (pyrrolidine ring nitrogen) ([1]; pyrrolidine ring nitrogen): 8.02 | factor by which diffusion rate is reduced at pH 6 relative to pH 8.1 (human buccal tissue): ~7

COC(=O)/C=C/C(C)=C\C=C\C(C)=C\C=C\C=C(C)\C=C\C=C(C)\C=C\C(=O)O [bixin, (2E,4E,6E,8E,10E,12E,14E,16Z,18E)-20-methoxy-4,8,13,17-tetramethyl-20-oxoicosa-2,4,6,8,10,12,14,16,18-nonaenoic acid]
solubility in fats and alcohols: soluble in fats and alcohols | solubility in water: insoluble in water | chemical stability (isolated, isomerizes to trans-bixin (β-bixin)): chemically unstable when isolated
